# Experimental data: patent US20130096170A1 (priority 2011, published 2013)
# Entries after “also recorded” stand apart in the source; their conditions may differ.
# Test system: prenatal Cynomolgus monkey brains (frontal cortex)
# [1] = Group 2, 20 mg/kg im + 20-50 mg/kg/hr, 5 fetal brains examined
smiles,measurement,setting,value
CNC1(c2ccccc2Cl)CCCCC1=O (centres unmarked) [ketamine],"Severity scoring of neuroapoptotic lesions, Activated caspase 3",[1],3.5 ± 0.7
same,"Severity scoring of neuroapoptotic lesions, HE",[1],1.9 ± 1.2
same,"Severity scoring of neuroapoptotic lesions, Silver",[1],2.0 ± 0.8
same,"Severity scoring of neuroapoptotic lesions, TUNEL",[1],2.9 ± 1.1
same,neuroapoptotic lesions / damaged and apoptotic cells in fetal frontal cortex,"Group 2: 20 mg/kg IM+20-50 mg/kg/hr ketamine to pregnant monkeys, H&E, silver, TUNEL, AC3",abundant neuroapoptotic lesions; also recorded: moderate to large number of damaged and apoptotic cells; also recorded: marked neuroapoptosis and cellular damage with necrosis
